Reference: PubChem BioAssay AID248 (DTP/NCI, 2004)
“And” between values parts separate entries of the source, which are not always exact repeats. Equal values may be shown once. Toxic doses and inconclusive results are not listed. Rule as the data show it: active = T/C of 150% or more; inactive = T/C below 125%.

Tested on: L1210 leukemia ip in BDF1 mice, survival T/C
Test: NCI In Vivo Anticancer Drug Screen. Data for tumor model L1210 Leukemia (intraperitoneal) in B6D2F1 (BDF1) mice
Details: endpoint: mean survival time, higher = longer survival
In short: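 Ratio derived from survival: compound-dosed mice over vehicle-dosed mice, all bearing a transplantable tumor.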

[1] = dose: 100.0 mg/kg/injection, schedule: Q01DX009 (ip), vehicle: Klucel (hydroxypropylcellulose) (HPC)
[2] = dose: 100.0 mg/kg/injection, schedule: Q04DX003 (ip), vehicle: Klucel (hydroxypropylcellulose) (HPC)
[3] = dose: 200.0 mg/kg/injection, schedule: Q01DX009 (ip), vehicle: Klucel (hydroxypropylcellulose) (HPC)
[4] = dose: 200.0 mg/kg/injection, schedule: Q04DX003 (ip), vehicle: Klucel (hydroxypropylcellulose) (HPC)
[5] = dose: 400.0 mg/kg/injection, schedule: Q04DX003 (ip), vehicle: Klucel (hydroxypropylcellulose) (HPC)
[6] = dose: 100.0 mg/kg/injection, schedule: Q04DX003 (ip), vehicle: saline
[7] = dose: 200.0 mg/kg/injection, schedule: Q04DX003 (ip), vehicle: saline
[8] = dose: 400.0 mg/kg/injection, schedule: Q04DX003 (ip), vehicle: saline
[9] = dose: 100.0 mg/kg/injection, schedule: Q01DX009 (ip), vehicle: saline with Tween-80
[10] = dose: 100.0 mg/kg/injection, schedule: Q04DX003 (ip), vehicle: saline with Tween-80
[11] = dose: 200.0 mg/kg/injection, schedule: Q01DX009 (ip), vehicle: saline with Tween-80
[12] = dose: 200.0 mg/kg/injection, schedule: Q04DX003 (ip), vehicle: saline with Tween-80
[13] = dose: 400.0 mg/kg/injection, schedule: Q04DX003 (ip), vehicle: saline with Tween-80
[14] = dose: 100.0 mg/kg/injection, schedule: Q01DX001 (ip), vehicle: saline
[15] = dose: 200.0 mg/kg/injection, schedule: Q01DX001 (ip), vehicle: saline
[16] = dose: 400.0 mg/kg/injection, schedule: Q01DX001 (ip), vehicle: saline
[17] = dose: 100.0 mg/kg/injection, schedule: Q01DX009 (ip), vehicle: saline
[18] = dose: 100.0 mg/kg/injection, schedule: Q01DX001 (ip), vehicle: Klucel (hydroxypropylcellulose) (HPC)
[19] = dose: 200.0 mg/kg/injection, schedule: Q01DX001 (ip), vehicle: Klucel (hydroxypropylcellulose) (HPC)
[20] = dose: 400.0 mg/kg/injection, schedule: Q01DX001 (ip), vehicle: Klucel (hydroxypropylcellulose) (HPC)
[21] = dose: 100.0 mg/kg/injection, schedule: Q01DX001 (ip), vehicle: carboxymethylcellulose (CMC)
[22] = dose: 200.0 mg/kg/injection, schedule: Q01DX001 (ip), vehicle: carboxymethylcellulose (CMC)
[23] = dose: 400.0 mg/kg/injection, schedule: Q01DX001 (ip), vehicle: carboxymethylcellulose (CMC)

Measured: T/C

CCN(CCCl)c1ccc(N=Nc2cc(Cl)ccc2Cl)cc1
inactive: [1] 103 % of control | [2] 104 % of control | [3] 115 % of control | [4] 97 % of control | dose: 400.0 mg/kg/injection, schedule: Q01DX009 (ip), vehicle: Klucel (hydroxypropylcellulose) (HPC) 105 % of control | [5] 104 % of control

OCCCCCc1ccccc1
inactive: dose: 100.0 mg/kg/injection, schedule: Q01DX009 (ip), vehicle: other 105 % of control | [6] 92 % of control | dose: 200.0 mg/kg/injection, schedule: Q01DX009 (ip), vehicle: other 102 % of control | [7] 101 % of control | dose: 400.0 mg/kg/injection, schedule: Q01DX009 (ip), vehicle: other 102 % of control | [8] 90 % of control

Cc1ccc(CCl)cc1
inactive: [9] 102 % of control | [10] 100 % of control | [11] 102 % of control | [12] 104 % of control | [13] 102 % of control

Nc1c(Cl)ncnc1Nc1ccc(C(=O)O)cc1
inactive: dose: 50.0 mg/kg/injection, schedule: Q01DX001 (ip), vehicle: saline 96 % of control | [14] 98 % of control | [15] 96 % of control | [16] 96 % of control

CCC(CCC(C)C1CCC2C3CC=C4CC(OC(=O)CCC(=O)O)CCC4(C)C3CCC12C)C(C)C (stereo not drawn)
inactive: [9] 101 % of control | [11] 96 % of control | dose: 400.0 mg/kg/injection, schedule: Q01DX009 (ip), vehicle: saline with Tween-80 92 % of control

CCOC(=O)c1cnc2c(cnn2CC)c1NCC(C)C
inactive: dose: 50.0 mg/kg/injection, schedule: Q01DX009 (ip), vehicle: Klucel (hydroxypropylcellulose) (HPC) 100 % of control | [1] 100 % of control | [3] 103 % of control

Cc1ccc(S(=O)(=O)NC(C(=O)O)C(C)C)cc1 (stereo not drawn)
inactive: [10] 102 % of control | [12] 100 % of control | [13] 102 % of control

CCOC(=O)NCCNC(=O)OCC
inactive: dose: 75.0 mg/kg/injection, schedule: Q01DX001 (ip), vehicle: Klucel (hydroxypropylcellulose) (HPC) 105 % of control | dose: 150.0 mg/kg/injection, schedule: Q01DX001 (ip), vehicle: Klucel (hydroxypropylcellulose) (HPC) 95 % of control | dose: 300.0 mg/kg/injection, schedule: Q01DX001 (ip), vehicle: Klucel (hydroxypropylcellulose) (HPC) 100 % of control

O=[P+](O)c1ccccc1
inactive: [17] 94 % of control | [6] 103 % of control | dose: 200.0 mg/kg/injection, schedule: Q01DX009 (ip), vehicle: saline 100 % of control | [7] 98 % of control | dose: 400.0 mg/kg/injection, schedule: Q01DX009 (ip), vehicle: saline 100 % of control | [8] 101 % of control

O=C(/C=C\c1ccccc1[N+](=O)[O-])C(=O)/C=C/c1ccccc1[N+](=O)[O-]
inactive: [18] 93 % of control | [19] 92 % of control | [20] 88 % of control

O=C1NC(=O)C(=Cc2ccc(N(CCCl)CCCl)cc2)C(=O)N1
inactive: dose: 100.0 mg/kg/injection, schedule: Q01DX Z (ip), vehicle: methylcellulose (MC) 102 % of control | dose: 200.0 mg/kg/injection, schedule: Q01DX Z (ip), vehicle: methylcellulose (MC) 121 % of control

Cc1ccc(Cl)cc1NC(=O)Nc1ccccc1Cl
inactive: [1] 92 % of control | [2] 101 % of control | [3] 91 % of control | [4] 95 % of control | [5] 93 % of control

O=C1OCCN1C(=O)c1ccc(C(=O)N2CCOC2=O)cc1
inactive: [18] 94 % of control | dose: 100.0 mg/kg/injection, schedule: Q01DX007 (ip), vehicle: Klucel (hydroxypropylcellulose) (HPC) 89 % of control | [2] 97 % of control | [19] 87 % of control | dose: 200.0 mg/kg/injection, schedule: Q01DX007 (ip), vehicle: Klucel (hydroxypropylcellulose) (HPC) 92 % of control | [4] 101 % of control | [20] 92 % of control | dose: 400.0 mg/kg/injection, schedule: Q01DX007 (ip), vehicle: Klucel (hydroxypropylcellulose) (HPC) 90 % of control | [5] 95 % of control

O=C1c2ccccc2-c2cc([N+](=O)[O-])c(NC(=O)C(Cl)Cl)cc21
inactive: [21] 96 % of control | [22] 107 % of control | [23] 102 % of control

Cc1cc(N=Nc2ccc(N(C)C)cc2)ccn1
inactive: [2] 101 % of control | [4] 102 % of control | [5] 91 % of control

CCCCCCC(C)NCCOC(=O)c1ccc(N)cc1 (stereo not drawn)
inactive: dose: 38.0 mg/kg/injection, schedule: Q04DX003 (ip), vehicle: other 104 % of control | dose: 75.0 mg/kg/injection, schedule: Q01DX001 (ip), vehicle: other 106 % of control and 98 % of control | dose: 75.0 mg/kg/injection, schedule: Q01DX001 (ip), vehicle: saline 96 % of control and 100 % of control | dose: 75.0 mg/kg/injection, schedule: Q04DX003 (ip), vehicle: other 104 % of control | dose: 150.0 mg/kg/injection, schedule: Q01DX001 (ip), vehicle: other 98 % of control and 93 % of control | dose: 150.0 mg/kg/injection, schedule: Q01DX001 (ip), vehicle: saline 91 % of control

CC(C)CN1CCC(=O)NC1=O
inactive: dose: 100.0 mg/kg/injection, schedule: Q01DX Z (ip), vehicle: saline 100 % of control | dose: 200.0 mg/kg/injection, schedule: Q01DX Z (ip), vehicle: saline 94 % of control

O=C(Nc1ccc2ccccc2c1)C1CC1
inactive: dose: 100.0 mg/kg/injection, schedule: Q04DX002 (ip), vehicle: Klucel (hydroxypropylcellulose) (HPC) 100 % of control | dose: 200.0 mg/kg/injection, schedule: Q04DX002 (ip), vehicle: Klucel (hydroxypropylcellulose) (HPC) 107 % of control | dose: 400.0 mg/kg/injection, schedule: Q04DX002 (ip), vehicle: Klucel (hydroxypropylcellulose) (HPC) 115 % of control

CCCCCC[Si](Br)(CCCCCC)CCCCCC
inactive: dose: 25.0 mg/kg/injection, schedule: Q01DX009 (ip), vehicle: saline 102 % of control | dose: 50.0 mg/kg/injection, schedule: Q01DX009 (ip), vehicle: saline 102 % of control | [14] 98 % of control | [17] 98 % of control | [15] 93 % of control | [16] 96 % of control

S=P(NCCCCCNP(=S)(N1CC1)N1CC1)(N1CC1)N1CC1
inactive: [21] 91 % of control

CN(C)CC(C)(C)C(=O)c1ccccc1
inactive: dose: 25.0 mg/kg/injection, schedule: Q04DX002 (ip), vehicle: saline 100 % of control | dose: 50.0 mg/kg/injection, schedule: Q04DX002 (ip), vehicle: saline 100 % of control | dose: 100.0 mg/kg/injection, schedule: Q04DX002 (ip), vehicle: saline 104 % of control

CC(C)(C)COC(=O)c1ccccc1
inactive: [21] 102 % of control | [22] 91 % of control | [23] 91 % of control
